69 compounds from PubChem BioAssay AID1850 (Southern Research Specialized Biocontainment Screening …, 2009) can be followed below.

For this assay, the system named is Salmonella Typhi PhoP-promoter GFP reporter, fluorescence, 4 h. Kind of assay: Inhibition of PhoP regulon, Salmonella typhi GFP reporter cells, confirmation, 4 h (AID 1850).
For the compound `c1ccc2c(c1)OC(CCCN1CCCCC1)c1ccccc1S2` (centres undefined), the IC50 is 95.1 µM. Regarding `O=C(Cn1nc(CNc2ccc(Cl)cc2)[n+]2c1CCCCC2)c1ccc(Br)cc1`, the IC50 was 51.4 µM. For the compound `CCn1cc(C(=O)O)c(=O)c2cnc(N3CCNCC3)nc21`, the IC50 was 25.7 µM. As for `COc1ccc(OCC(O)CNc2ccc(Br)cc2)cc1` (centres undefined), the IC50 is 5.72 µM. The result for `CSc1ccc2c(c1)N(CCC1CCCCN1C)c1ccccc1S2` (centres undefined) reads 74 µM; that for `CC1(C)N=C(N)NC(Nc2cccc(Br)c2)=N1`, 34.7 µM; that for `Cc1ccc(N/C(=C\C(=O)c2ccccc2)C(=O)O)cc1`, 30.9 µM.

As to `O=C(N/N=C\c1cccc([N+](=O)[O-])c1O)C1COc2ccccc2O1` (centres undefined), the concentration for half-maximal inhibition (IC50) was 27.4 µM. In the case of `CN(C)CCN(C(=O)C1=COCCO1)c1nc2ccc(Cl)cc2s1`, the IC50 is 135 µM. Then `Cc1cc(C2N=C(N)Nc3nc4ccccc4n32)c(C)n1-c1ccccc1Cl` (centres undefined), with 32 µM; and `CN1CC(C(=O)c2ccc(Cl)cc2)C(c2ccc(Cl)cc2Cl)C1` (centres undefined), with 37.4 µM; and `Clc1ccc2[nH]c3c(c2c1)CCc1cn[nH]c1-3`, with 79.6 µM. With `NC1=NC[C@H](c2ccccc2)N1CCCCC1CCCCC1`, the IC50 is 34.8 µM. With `O=C(CC(=O)c1c(F)cccc1Cl)c1ccccc1O`, the IC50 was 50.8 µM.

In the case of `O=C(O)c1cn(-c2ccc(F)cc2)c2cc(Cl)c(F)cc2c1=O`, the IC50 was 83.7 µM. Then `O=C(Oc1c(Cl)cc(Cl)c2cccnc12)c1cccc([N+](=O)[O-])c1`, with 8.4 µM. On to `C[C@H]1COc2c(N3CCN(C)CC3)c(F)cc3c(=O)c(C(=O)O)cn1c23`, for which the IC50 was less than 0.23 µM. As to `COc1ccc(Nc2ccnc3ccccc23)cc1`, the IC50 is 52.2 µM. Regarding `CCCOc1ccc(C(=O)NNC(=S)NC(C)=O)cc1`, the IC50 is 35.5 µM. With `CCn1cc(C(=O)O)c(=O)c2cc3c(cc21)OCO3`, the IC50 was 43.3 µM.

Consider `Cc1ccc2c(c1)sc(-c1ccc(N(C)C)cc1)[n+]2C`, for which the IC50 was 24.1 µM. For `CCN1CCN(CCNC(=O)c2ccc3c(c2)N(Cc2ccc(F)cc2)C(=O)/C(=C/c2ccccc2)S3)CC1`, the IC50 was 44.8 µM. As to `CO/N=C(/C(=O)N[C@@H]1C(=O)N2C(C(=O)O)=CCS[C@H]12)c1cnc(N)s1`, the IC50 was 18.6 µM.

`CN1CCC(=C2c3ccccc3C=Cc3ccccc32)CC1`: the IC50 was 105 µM. Consider `Cc1ccc(NC(=O)c2ccc([N+](=O)[O-])o2)c(C)c1`, for which the IC50 is 76.6 µM. With `CNCCCCOc1ccc(C(C)(C)C)cc1Cl`, the IC50 was 77 µM. On to `Nc1nonc1-n1nnc(C(=O)N/N=C/c2cc(Br)ccc2O)c1CSC1=NCCS1`, for which the IC50 was 105 µM. On to `CCCOc1ccc(C(=O)NNC(=S)NC(=O)CC)cc1`, for which the IC50 was 47.7 µM. On to `Cc1cc(O)c2c(c1)C(=O)C13C(=C2O)C(=O)[C@H]2[C@@H](O)[C@@H]1[C@H]1[C@H](O)[C@@H]3C(=O)C3=C(O)c4c(O)cc(C)cc4C(=O)C312` (some centres undefined), for which the IC50 is 5.14 µM. Then `C#CCOCCOCCOCCNc1nc(N2CCN(C(=O)[C@H](Cc3ccc(O)cc3)n3cc([C@@H](N)CC(C)C)nn3)CC2)nc(N2CCN(C(=O)[C@H](Cc3cc4ccccc4[nH]3)n3cc([C@@H](N)CC(C)C)nn3)CC2)n1`, with 105 µM; and `CC1=C([N+](=O)[O-])C(c2cccc(Br)c2)C2=C(N1)c1ccccc1C2=O` (centres undefined), with 18.2 µM; and `COc1c(N2CCN[C@H](C)C2)c(F)cc2c(=O)c(C(=O)O)cn(C3CC3)c12`, with less than 0.23 µM. With `CCCCCCCCCCCCCCCCn1cc[n+](C)c1`, the IC50 is 31.2 µM.

In the case of `Cc1ccc(C(=O)Sc2cccccc2=O)cc1`, the IC50 was 5.2 µM. With `Cc1cccc2c1Sc1ccc(Cl)cc1CC2N1CCNCC1` (centres undefined), the IC50 was 78.5 µM. `O=C(CCc1ccccc1)NNC(=O)c1ccccn1`: the IC50 is 74 µM. On to `CCCCNCCCOc1cccc(Cl)c1Cl`, for which the IC50 was 148 µM.

In the case of `O=c1c2ccccc2nc(N/N=C/c2c(O)ccc3ccccc23)n1O`, the IC50 is 24.9 µM.

For the compound `O=C(Nc1nc(-c2ccccn2)cs1)c1ccc(Br)s1`, the IC50 is 23.9 µM. Then `OC(CNCc1ccco1)Cn1c2ccc(Br)cc2c2cc(Br)ccc21` (centres undefined), with 20.8 µM; and `O=C1CSC(=S)N1c1cccc(O)c1`, with 126 µM; and `C#CCOCCOCCOCCNc1nc(N2CCN(C(=O)CCCCCCCCCCNC(=O)[C@H](CCCCN)n3cc(CCO)nn3)CC2)nc(N2CCN(C(=O)CCCCCCCCCCNC(=O)[C@H](CCCCN)n3cc(CCO)nn3)CC2)n1`, with 60.3 µM. As for `CCc1cccc(NC(=O)CSC2=NS(=O)(=O)c3ccccc32)c1`, the IC50 was 37.3 µM. In the case of `COc1ccc(/C=N/Nc2cc(C)nc3ccccc23)cc1`, the half-maximal inhibitory concentration (IC50) was 10.4 µM. Then `CN(C)CCNc1oc(COc2ccc(-c3ccccc3)cc2)nc1C#N`, with 59.2 µM; and `CSc1ccc2c(c1)C(N1CCN(C)CC1)Cc1ccc(F)cc1S2` (centres undefined), with 36.8 µM. For the compound `COc1ccc(NC2=NC3(CCCCC3)N=C(N)N2)cc1`, the IC50 was 74 µM. Then `CC1CCC(C(C)C)C(OC(=O)Cn2c(-c3ccc(Cl)cc3)[n+](C)c3ccccc32)C1` (centres undefined), with 50.4 µM. Regarding `O=C(N/N=C/c1sc2ccccc2c1O)c1cccc2ccccc12`, the half-maximal inhibitory concentration (IC50) was 70.5 µM. For the compound `O=C1NCCN1c1ncc([N+](=O)[O-])s1`, the IC50 was 40.8 µM. Turning to `O=C(Cn1cc[n+](CC(=O)c2ccc(Cl)cc2Cl)c1)c1ccc(Cl)cc1Cl`, the 50% inhibitory concentration (IC50) is 37.5 µM.

In the case of `O=C(NC(=S)NNC(=O)c1cccs1)c1ccc(Br)o1`, the IC50 is 64.3 µM.

For `COc1ccc(CCN2CCC(Nc3nc4ccccc4n3Cc3ccc(F)cc3)CC2)cc1`, the IC50 was 37.7 µM. `CCN(CC)c1ccc(CNc2nc3ccccc3n2CCN2CCCCC2)cc1`: the IC50 was 52.1 µM. As for `C(=N\Nc1ccccn1)/c1cccnc1`, the IC50 was 33.9 µM. Then `CO[C@@]1(NC(=O)Cc2cccs2)C(=O)N2C(C(=O)O)=C(COC(N)=O)CS[C@@H]21`, with 9.3 µM; and `C[n+]1c2n(c3ccccc31)N=C(c1ccc(-c3ccccc3)cc1)CS2`, with 24.8 µM.

Consider `Cc1cccc(Nc2cc(C)c3c(O)cccc3n2)c1C`, for which the IC50 was 17.4 µM. `NC1=NC[C@H](CC2CCCCC2)N1CCc1cc(C(F)(F)F)cc(C(F)(F)F)c1`: the IC50 is 35.6 µM.

On to `CS(=O)(=O)c1ccc([C@@H](O)[C@@H](CF)NC(=O)C(Cl)Cl)cc1`, for which the IC50 is 5.21 µM. The result for `Cc1cc(=O)[nH]c(-n2nc(C)cc2C)n1` reads 75.5 µM. In the case of `COc1cc(C(=O)O/N=C2\C=CC(=O)C(C)=C2)cc(OC)c1OC`, the IC50 is 121 µM. As for `CN1CCN(CCCN2c3ccccc3Sc3ccc(C(F)(F)F)cc32)CC1`, the half-inhibitory concentration (IC50) was 46.4 µM.

For `CCCCn1c(NS(=O)(=O)c2ccc(C)cc2)c(S(=O)(=O)c2ccccc2)c2nc3ccccc3nc21`, the IC50 was 7.98 µM. Then `CCC(/C=C1\Sc2ccc(OC)cc2N1CCO)=C\c1sc2ccc(OC)cc2[n+]1CCO`, with 31.8 µM; and `O=C(Nc1nc(-c2ccccn2)cs1)c1ccc(Cl)s1`, with 33.2 µM; and `C#CCOCCOCCOCCNc1nc(N2CCN(C(=O)CCCCCCCCCCNC(=O)[C@@H](CCSC)n3cc(CCO)nn3)CC2)nc(N2CCN(C(=O)CCCCCCCCCCNC(=O)[C@H]([C@@H](C)CC)n3cc(CCCCN=C(N)N)nn3)CC2)n1`, with 82.7 µM.

Take `O=C(Nc1cccc([N+](=O)[O-])c1)Nc1cccs1`: the IC50 is 24.7 µM.

As for `Nc1nonc1C(=O)N/N=C/c1cc(Br)ccc1O`, the IC50 was 10.5 µM.

The IC50 is the concentration at which inhibition is half-maximal.
